Entries after “also recorded” stand apart in the source; their conditions may differ. Values belong to the compound of their own block, whether it stands above or below them.
Tests used:
[1] = oral, mice; cited from earlier work
[2] = biological target: T1, human OATP1A2 (Homo sapiens, UniProt P46721); experiment: Cellular uptake in OATP1A2-overexpressing HEK293 cells; type: in vitro ADME; conditions: 0.2 µM, 2.5 min incubation, HEK293 OATP1A2, positive control
T1 construct: Werner Siegmund and Dr. Markus Keiser (University of Greifswald); host or cells: HEK293
T1 sequence (P46721 1-670): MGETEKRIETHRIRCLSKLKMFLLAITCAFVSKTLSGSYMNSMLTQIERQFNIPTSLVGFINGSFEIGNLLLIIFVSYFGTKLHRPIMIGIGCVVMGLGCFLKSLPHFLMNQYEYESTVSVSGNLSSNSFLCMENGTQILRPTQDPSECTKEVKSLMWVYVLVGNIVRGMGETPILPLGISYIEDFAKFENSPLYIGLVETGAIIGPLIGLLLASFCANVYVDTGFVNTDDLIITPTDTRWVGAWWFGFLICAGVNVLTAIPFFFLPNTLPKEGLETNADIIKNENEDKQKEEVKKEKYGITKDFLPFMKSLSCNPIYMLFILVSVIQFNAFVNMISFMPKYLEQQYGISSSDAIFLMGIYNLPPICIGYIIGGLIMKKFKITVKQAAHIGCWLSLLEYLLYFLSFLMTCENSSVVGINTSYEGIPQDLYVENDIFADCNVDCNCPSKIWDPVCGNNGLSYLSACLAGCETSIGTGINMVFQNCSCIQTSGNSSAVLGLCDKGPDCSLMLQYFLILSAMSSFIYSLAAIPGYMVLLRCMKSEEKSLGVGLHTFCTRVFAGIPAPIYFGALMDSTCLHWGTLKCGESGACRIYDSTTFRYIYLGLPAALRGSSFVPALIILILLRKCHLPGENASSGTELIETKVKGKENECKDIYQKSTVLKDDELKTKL
Experimental: (§1) HEK293 cells, vector-transfected or human (h)SLCO1A2, hSLCO1B1 or hSLCO1B3 cDNA-transfected were kind gifts from Prof. Werner Siegmund and Dr. Markus Keiser (University of Greifswald, Greifswald, Germany). All the HEK293 cell lines were maintained in DMEM supplemented with 10% (v/v) FBS, 1% penicillin–streptomycin mix at 37 °C in 5% (v/v) CO2 and 500 μg/mL G418. Cells were first seeded in 12-well plates [coated with 50 mg/L poly (l-lysine) and 50 mg/L poly (l-ornithine)] at a density of 1.0 × 10^5 cells/well. For the uptake study, in order to induce the expression of OATP transporters, the cell culture medium was replaced with culture medium supplemented with 5 mM sodium butyrate 24 h before performing the uptake assay.
(§2) The uptake transport study was performed as described previously. […] The Krebs–Henseleit solution was prepared from Krebs–Henseleit-buffer modified powder and supplemented with 25 mM NaHCO3 and 2.5 mM CaCl2 adjusted to pH 6.4 with 1 M HCL. At 2.5 min, the incubation buffer was removed, and uptake was terminated by adding 1 mL of ice-cold Krebs–Henseleit buffer, followed by two times washing with 1 mL of ice-cold Krebs–Henseleit buffer. […] The cellular protein amount was determined by the Bradford method using 10 μL of the cell lysates with bovine serum albumin as a standard.

[3] = biological target: T2, human OATP1B1 (Homo sapiens, UniProt Q9Y6L6); experiment: Cellular uptake in OATP1B1-overexpressing HEK293 cells; type: in vitro ADME; conditions: 0.2 µM, 2.5 min incubation, HEK293 OATP1B1, positive control
T2 construct: Werner Siegmund and Dr. Markus Keiser (University of Greifswald); host or cells: HEK293
T2 sequence (Q9Y6L6 1-691): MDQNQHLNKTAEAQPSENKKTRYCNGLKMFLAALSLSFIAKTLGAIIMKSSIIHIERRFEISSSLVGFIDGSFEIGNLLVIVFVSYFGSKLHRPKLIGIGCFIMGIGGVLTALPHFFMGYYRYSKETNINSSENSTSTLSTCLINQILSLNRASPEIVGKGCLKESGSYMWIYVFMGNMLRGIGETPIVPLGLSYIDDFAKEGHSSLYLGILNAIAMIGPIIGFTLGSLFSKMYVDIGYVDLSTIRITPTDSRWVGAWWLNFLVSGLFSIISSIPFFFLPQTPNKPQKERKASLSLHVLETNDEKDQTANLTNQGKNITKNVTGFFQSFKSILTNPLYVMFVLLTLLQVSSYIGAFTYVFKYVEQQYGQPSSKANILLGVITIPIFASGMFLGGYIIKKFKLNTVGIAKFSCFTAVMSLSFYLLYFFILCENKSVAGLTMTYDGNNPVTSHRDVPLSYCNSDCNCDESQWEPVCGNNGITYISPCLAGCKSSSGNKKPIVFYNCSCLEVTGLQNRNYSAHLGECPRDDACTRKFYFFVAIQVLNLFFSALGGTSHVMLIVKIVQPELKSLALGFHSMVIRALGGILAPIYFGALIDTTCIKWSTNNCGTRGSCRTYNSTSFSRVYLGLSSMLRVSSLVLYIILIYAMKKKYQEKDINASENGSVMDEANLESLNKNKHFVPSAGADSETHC
Experimental: as §1, §2

[4] = biological target: T3, human OATP1B3 (Homo sapiens, UniProt Q9NPD5); experiment: Cellular uptake in OATP1B3-overexpressing HEK293 cells; type: in vitro ADME; conditions: 0.2 µM, 2.5 min incubation, HEK293 OATP1B3, positive control
T3 construct: Werner Siegmund and Dr. Markus Keiser (University of Greifswald); host or cells: HEK293
T3 sequence (Q9NPD5 1-702): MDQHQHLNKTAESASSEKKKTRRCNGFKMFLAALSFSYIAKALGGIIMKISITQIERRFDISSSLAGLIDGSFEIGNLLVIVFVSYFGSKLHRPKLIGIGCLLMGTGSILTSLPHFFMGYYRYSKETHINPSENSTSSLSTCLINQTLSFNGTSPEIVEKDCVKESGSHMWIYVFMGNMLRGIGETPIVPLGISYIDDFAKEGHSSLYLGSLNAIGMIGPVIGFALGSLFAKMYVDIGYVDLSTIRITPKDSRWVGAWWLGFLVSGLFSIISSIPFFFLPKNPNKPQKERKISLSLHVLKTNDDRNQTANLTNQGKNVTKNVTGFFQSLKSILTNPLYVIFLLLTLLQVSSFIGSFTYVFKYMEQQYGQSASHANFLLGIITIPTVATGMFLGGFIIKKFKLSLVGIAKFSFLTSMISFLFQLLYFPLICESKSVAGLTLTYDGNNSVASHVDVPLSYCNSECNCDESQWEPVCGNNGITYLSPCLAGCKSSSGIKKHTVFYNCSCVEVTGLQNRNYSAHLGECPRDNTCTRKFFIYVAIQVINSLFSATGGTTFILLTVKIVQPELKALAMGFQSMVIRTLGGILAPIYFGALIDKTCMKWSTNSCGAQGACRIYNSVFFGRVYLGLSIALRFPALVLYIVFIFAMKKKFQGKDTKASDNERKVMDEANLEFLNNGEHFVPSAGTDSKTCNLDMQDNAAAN
Experimental: as §1, §2

[5] = set-up: method as in PMID 30253203; conditions: oral brigatinib, Abcb1a/1b;Abcg2-/- mice; cited from earlier work

Structure (SMILES): COc1cc2c(cc1OC)CN(CCc1ccc(NC(=O)c3cccc4c(=O)c5cccc(OC)c5[nH]c34)cc1)CC2 [elacridar]
Tmax [1]: about 4 h

uptake compared to vector control cells [2]: efficiently taken up | uptake compared to vector control cells [3]: efficiently taken up | uptake compared to vector control cells [4]: efficiently taken up
Structure (SMILES): CC(C)c1nc(N(C)S(C)(=O)=O)nc(-c2ccc(F)cc2)c1/C=C/[C@@H](O)C[C@@H](O)CC(=O)O [Rosuvastatin]

Structure (SMILES): COc1cc(N2CCC(N3CCN(C)CC3)CC2)ccc1Nc1ncc(Cl)c(Nc2ccccc2P(C)(C)=O)n1 [brigatinib]
acute toxicity [5]: severe and even lethal acute toxicity; also recorded: sometimes severe and lethal toxicity

— paper PMC8617681 (Pharmaceuticals, 2021)
